Laboratory results taken from patent US5607926A, “Cephalosporin antibiotics” (Microcide Pharmaceuticals, Inc., priority 1995, dated 1997).
In brackets after ≈: the same amount, converted by molar mass. Read-outs that look alike come from different tables or passages of the source.

Key:
S. aureus ATCC 29213 = test: In vitro antibacterial evaluation, MIC by agar dilution, S. aureus ATCC 29213; type: cell-based; conditions: Staphylococcus aureus, ATCC29213
Outline: (§1)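 Log-phase isolates were spot-inoculated at about 10^4 cfu per spot onto Mueller-Hinton agar plates containing twofold compound dilutions (highest working concentration 128 μg/mL, lowest ≤0.25 μg/mL, duplicates). After 16-20 h at 35-36 °C, the lowest growth-inhibiting level was taken as MIC, per NCCLS agar dilution.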

[1] = test system: S. epidermidis ATCC 31432; test: In vitro antibacterial evaluation, MIC by agar dilution, S. epidermidis ATCC 31432; type: cell-based; conditions: Staphylococcus epidermidis, ATCC31432
Outline: as §1

P. aeruginosa ATCC 27853 = test: In vitro antibacterial evaluation, MIC by agar dilution, P. aeruginosa ATCC 27853; type: cell-based; conditions: Pseudomonas aeruginosa, ATCC27853, read-out: MIC
Outline: as §1

[2] = test system: S. aureus Col8A (Meth^S)(lac^-); test: In vitro antibacterial evaluation, MIC by agar dilution, S. aureus Col8A; type: cell-based; conditions: Staphylococcus aureus
Outline: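 Log-phase isolates were spot-inoculated at about 10^4 cfu onto Mueller-Hinton agar carrying duplicate two-fold compound levels, 128 μg/mL to ≤0.25 μg/mL, following NCCLS (1991). Plates were read after 16-20 h at 35°-36° C. The lowest growth-inhibiting concentration gave the MIC (μg/ml).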

E. faecalis ATCC 29212 = test: In vitro antibacterial evaluation, MIC by agar dilution, E. faecalis ATCC 29212; type: cell-based; conditions: Enterococcus faecalis, ATCC29212; E. faecalis ATCC 29212; read-out: MIC
Outline: as §1

[3] = test system: X. maltophilia ATCC 13637; test: In vitro antibacterial evaluation, MIC by agar dilution, X. maltophilia ATCC 13637; type: cell-based; conditions: Stenotrophomonas maltophilia, ATCC13637
Description: (§2) The compounds of the invention were evaluated against several β-lactamresistant bacteria strains by determining the minimum inhibitory concentration (MIC, μg/ml) of each compound with respect to each strain. The MIC, the lowest concentration of antibiotic which inhibits growth of the test organism, was determined by the agar dilution method.
(§3) To determine the MIC for bacterial isolates, the test compound was incorporated in a series of two-fold dilutions into liquified Mueller-Hinton agar. Upon solidification, a number of different bacterial strains were spot inoculated with a replicating device onto the agar surface. […] The procedures used in these studies have been standardized by the National Committee for Clinical Laboratory Standards (NCCLS), as per the NCCLS publication entitled METHODS FOR DILUTION ANTIMICROBIAL SUSCEPTIBILITY TESTS (1991), which is incorporated herein by reference.
(§4) Aliquots of antimicrobial agents were prepared in phosphate buffered saline (PBS) at pH 7.2. Tween 20 or DMSO was used as a solubilizing vehicle as needed. Standard methods of vortexing, sonicating and gentle heat were used to facilitate solubilizing the test agent. Typically, the concentration of the stock solution was 10× that of the highest drug concentration tested. A 1.28 mg/mL stock solution was used with a subsequent highest working concentration of 128 μg/mL. Serial two-fold dilutions were done through ≤0.25 μg/mL. Each drug level was tested in duplicate. Two-fold drug dilutions were done in sterile 50 mL tubes with a final drug volume of 5 mL. Upon the addition of 45 mL of molten agar, a 10-fold dilution resulted. Two, 25 mL. plates were then poured into 15×150 mm square Petri plates with grids and allowed to harden.
(§5) A control plate with a reference drug, either cefotaxime, vancomycin or imipenem, was used as the positive growth control. Stock concentrations of reference antibiotics were prepared and frozen at -80° C. Upon preparation, the control plates were sealed and stored in the refrigerator for up to 1 week prior to use; however, imipenem control plates had to be prepared just prior to use. All test plates were used within 24 hours of preparation.
(§6) Satisfactory results were obtained where the inoculum contained about 10^4 colony forming units (cfu) ±0.5 logs. Starting with pure cultures of the test isolates on agar plates, a few isolated colonies were transferred to a tube of nutrient broth and allowed to grow 4-6 hours at 35°-36° C. to reach log-phase growth. Dropwise addition of the broth culture to PBS was done to match a 0.5 McFarland turbidity standard equal to 10^8 cfu/mL. This was further diluted ten-fold in PBS to reach a working inoculum concentration of 10^7 cfu/mL. When 1 μL of the working inoculum was applied to the agar surface a concentration of about 10^4 cfu per spot was obtained.
(§7) Disposable sterile 1 μL loops were used to inoculate test plates, with each isolate in a designated grid on the agar plate. An alternate method of inoculation involved the use of a replica plater, a device with 48 steel pins allowing the simultaneous inoculation of multiple isolates. After the spots had dried, the plates were incubated at 35°-36° C. for 16-20 hours. Endpoints were assessed as the minimum inhibitory concentration (MIC) of antimicrobial agent.

[4] = test system: S. aureus 76 (Meth^R)(lac^+); test: In vitro antibacterial evaluation, MIC by agar dilution, S. aureus 76; type: cell-based; conditions: Staphylococcus aureus, read-out: MIC
Outline: as §1

E. coli ATCC 25922 = test: In vitro antibacterial evaluation, MIC by agar dilution, E. coli ATCC 25922; type: cell-based; conditions: Escherichia coli, ATCC25922, read-out: MIC
Outline: as §1

S. aureus ATCC 25923 = test: In vitro antibacterial evaluation, MIC by agar dilution, S. aureus ATCC 25923; type: cell-based; conditions: Staphylococcus aureus, ATCC25923
Outline: as §1

[5] = test system: methicillinsusceptible S. aureus strain ATCC 13709; test: Challenge strain MIC; type: cell-based; conditions: Staphylococcus aureus, ATCC13709, S. aureus ATCC 13709; read-out: Challenge str MIC
Description: as §2, §3, §4, §5, §6, §7
(§8) data reported for challenge with methicillinsusceptible S. aureus strain

S. haemolyticus (Meth^R) = test: In vitro antibacterial evaluation, MIC by agar dilution, S. haemolyticus; type: cell-based; conditions: Staphylococcus haemolyticus, read-out: MIC
Outline: as §1

E. faecium ATCC 35667 = test: In vitro antibacterial evaluation, MIC by agar dilution, E. faecium ATCC 35667; type: cell-based; conditions: Enterococcus faecium, ATCC35667, read-out: MIC
Outline: as §1

[6] = test system: methicillinsusceptible S. aureus strain ATCC 13709; test: In vivo antibacterial evaluation, murine model for lethal bacteremic peritonitis; design: species or system S. aureus in female Swiss-Webster mice; conditions: Staphylococcus aureus, ATCC13709, sc, 72 h, two equal SC doses at challenge and 2 hours later, mice, probit, read-out: ED50
Description: Groups of 5 female Swiss-Webster mice (Simonsen, Gilroy, Calif.) each are challenged by the intraperitoneal (IP) route with ten-fold increments of a bacterial inoculum. This permits calculation of the mean lethal dose (LD50) and the LD100. For preliminary evaluation of a new antibiotic, mice are challenged IP with an LD100 titer of bacteria. In two equal doses administered at the time of bacterial challenge and 2 hours later, groups of 10 mice each are treated subcutaneously with two-fold increments of the test drug and an antibiotic of known efficacy in mice and humans (i.e., positive control). Mice are observed for 72 h. Those alive at 72 h are considered long term survivors. The total drug dose in mg/kg that protects 50% of mice in a group from death is termed the mean protective dose (PD50). PD50 s are similarly determined for several pathogens. The quantitative endpoints for the new drug are then compared with those obtained with reference antibiotics.
Six ten-fold dilutions of inoculum suspended in 0.5 mL of sterilized 7% hog gastric mucin (Sigma) are injected IP in groups of 5 mice each. A control group of 5 mice receive mucin alone. Mice are observed for 72 h. Those alive at 72 h are considered long term survivors. The mean lethal dose (LD50) and 100% lethal dose (LD100) are determined by the probit test.
For antibiotic efficacy studies, mice are challenged IP with bacterial titers that will afford an LD100 for the test strain. In two equal doses administered at the time of bacterial challenge and 2 hours later, groups of 10 mice each are treated by the subcutaneous route (SC) with twofold increments of the test antibiotic; another group is treated similarly with a reference antibiotic of known efficacy in animals and man. Drug doses can range from 0.01 to 512 mg/kg. If the drug is poorly soluble, Tween 20 or propylene glycol will be employed to solubilize the drug. Animals are observed for 72 h. The 50% protective dose (PD50) is calculated in mg/kg by the probit method. The PD50 is the same as the 50% effective dose (ED50) and the 50% curative dose (CD50). Samples of blood from the hearts of all animals that die and from half the mice that survive are cultured on brain-heart infusion agar. Animals that received a protective dosage of the test drug will be alive at 72 h, although they may appear moderately ill to very ill during the observation period. […] Most of these mice will die within 6 to 48 h. Those alive at 72 h will be considered long term survivors.
as §8

[7] = S. aureus ATCC 29213, read-out: MIC
[8] = S. epidermidis ATCC 31432, read-out: MIC
[9] = S. aureus ATCC 25923, read-out: MIC

SMILES	MIC (S. aureus ATCC 29213; [7])	MIC [1, 8]	MIC (P. aeruginosa ATCC 27853)	MIC [2]	MIC (E. faecalis ATCC 29212)	MIC [3]	MIC [4]	MIC (E. coli ATCC 25922)	MIC (S. aureus ATCC 25923; [9])	MIC [5]	MIC [1]	MIC (S. haemolyticus (Meth^R))	MIC (E. faecium ATCC 35667)	ED50 [6]	MIC (S. aureus ATCC 25923)	MIC (S. aureus ATCC 29213)
O=C(Cc1ccccc1)N[C@@H]1C(=O)N2C(C(=O)O)=C(Sc3ccc4c(c3)oc3ccccc34)CS[C@H]12 [Cmpd 7, (7R)-7-[(Phenylacetyl)amino]-3-(dibenzofuranyl-3-thio)-3-cephem-4-carboxylic acid]	< 0.06 µg/mL	< 0.06 µg/mL	> 32 µg/mL	0.06 µg/mL (≈ 0.116 µM)	1 µg/mL (≈ 1.94 µM)	> 32 µg/mL	16 µg/mL (≈ 31 µM)	> 32 µg/mL	< 0.06 µg/mL							
N#Cc1ccccc1SC1=C(C(=O)O)N2C(=O)[C@@H](NC(=O)Cc3ccccc3)[C@H]2SC1 [Cmpd 41, (7R)-7-[(Phenylacetyl)amino]-3-(2-cyanophenylthio)-3-cephem-4-carboxylic acid]			> 32 µg/mL	< 0.25 µg/mL	4 µg/mL (≈ 8.86 µM)		4 µg/mL (≈ 8.86 µM)	> 32 µg/mL		0.06 µg/mL (≈ 0.133 µM)	< 0.25 µg/mL	16 µg/mL (≈ 35.4 µM)	2 µg/mL (≈ 4.43 µM)	1.13 mg/kg	< 0.25 µg/mL	
O=C(Cc1ccccc1)N[C@@H]1C(=O)N2C(C(=O)O)=C(Sc3ccnn3-c3ccccc3)CS[C@H]12 [Cmpd 87, (7R)-7-[(Phenylacetyl)amino]-3-(1-N-phenylpyrazol-5-ylthio)-3-cephem-4-carboxylic acid]			> 32 µg/mL	< 0.25 µg/mL	2 µg/mL (≈ 4.06 µM)		4 µg/mL (≈ 8.12 µM)	> 32 µg/mL		0.06 µg/mL (≈ 0.122 µM)	< 0.25 µg/mL	16 µg/mL (≈ 32.5 µM)	1 to 2 µg/mL (≈ 2.03 to 4.06 µM)	1.89 mg/kg	< 0.25 µg/mL	
Nc1nc(/C(=N/OC2CCCC2)C(=O)N[C@@H]2C(=O)N3C(C(=O)O)=C(Sc4ccnn4-c4ccccc4)CS[C@H]23)cs1 [Cmpd 89, (7R)-7-[(Z)-2-(aminothiazol-4-yl)-2-(cyclopentyloxyimino)acetamido]-3-(1-N-phenylpyrazol-5-ylthio)-3-cephem-4-carboxylic acid]	0.5 µg/mL (≈ 0.817 µM)	< 0.25 µg/mL	8 µg/mL (≈ 13.1 µM)	0.5 µg/mL (≈ 0.817 µM)	2 µg/mL (≈ 3.27 µM)		4 µg/mL (≈ 6.54 µM)	2 µg/mL (≈ 3.27 µM)	< 0.25 µg/mL	0.5 µg/mL (≈ 0.817 µM)		8 µg/mL (≈ 13.1 µM)	4 µg/mL (≈ 6.54 µM)	> 10 mg/kg		
N#CCC(=O)N[C@@H]1C(=O)N2C(C(=O)O)=C(Sc3ccnn3-c3ccccc3)CS[C@H]12 [Cmpd 88, (7R)-7-[(Cyanoacetyl)amino]-3-(1-N-phenylpyrazol-5-ylthio)-3-cephem-4-carboxylic acid]			> 32 µg/mL	< 0.25 µg/mL	4 µg/mL (≈ 9.06 µM)		16 µg/mL (≈ 36.2 µM)	> 32 µg/mL		0.25 µg/mL (≈ 0.566 µM)	< 0.25 µg/mL	16 µg/mL (≈ 36.2 µM)	2 µg/mL (≈ 4.53 µM)	0.31 mg/kg	< 0.25 µg/mL	
O=C(CSc1ccccc1)N[C@@H]1C(=O)N2C(C(=O)O)=C(Sc3ccnn3-c3ccccc3)CS[C@H]12 [Cmpd 119, (7R)-7-[(phenylthioacetyl)amino]-3-(1-N-phenylpyrazol-5-ylthio)-3-cephem-4-carboxylic acid]	0.125 µg/mL (≈ 0.238 µM)		> 32 µg/mL	0.06 µg/mL (≈ 0.114 µM)	1 µg/mL (≈ 1.91 µM)		8 µg/mL (≈ 15.2 µM)	> 32 µg/mL		0.25 µg/mL (≈ 0.477 µM)		16 µg/mL (≈ 30.5 µM)	1 µg/mL (≈ 1.91 µM)	> 5 mg/kg		
N#CCC(=O)N[C@@H]1C(=O)N2C(C(=O)O)=C(Sc3ccccc3I)CS[C@H]12 [Cmpd 17, (7R)-7-[(Cyanoacetyl)amino]-3-(o-iodophenylthio)-3-cephem-4-carboxylic acid]				< 0.25 µg/mL			4 µg/mL (≈ 7.98 µM)	> 64 µg/mL		0.125 µg/mL (≈ 0.249 µM)	< 0.25 µg/mL	8 µg/mL (≈ 16 µM)	1 µg/mL (≈ 1.99 µM)	3.41 mg/kg		< 0.25 µg/mL
O=C(Cc1ccccc1)N[C@@H]1C(=O)N2C(C(=O)O)=C(Sc3cccnc3-c3ccccc3)CS[C@H]12 [Cmpd 81, (7R)-7-[(Phenylacetyl)amino]-3-(2-phenylpyridin-3-ylthio)-3-cephem-4-carboxylic acid]			> 32 µg/mL	< 0.25 µg/mL	2 µg/mL (≈ 3.97 µM)		4 µg/mL (≈ 7.94 µM)	> 32 µg/mL		0.125 µg/mL (≈ 0.248 µM)	< 0.25 µg/mL	16 µg/mL (≈ 31.8 µM)	1 µg/mL (≈ 1.99 µM)	8.46 mg/kg	< 0.25 µg/mL	
O=C(CC1CC1)N[C@@H]1C(=O)N2C(C(=O)O)=C(Sc3ccnn3-c3ccccc3)CS[C@H]12 [Cmpd 107, (7R)-7-[(cyclopropylacetyl)amino]-3-(1-N-phenylpyrazol-5-ylthio)-3-cephem-4-carboxylic acid]			> 32 µg/mL	0.25 µg/mL (≈ 0.548 µM)	8 µg/mL (≈ 17.5 µM)		16 µg/mL (≈ 35 µM)	> 32 µg/mL		0.125 µg/mL (≈ 0.274 µM)		32 µg/mL (≈ 70.1 µM)	8 µg/mL (≈ 17.5 µM)	1.58 mg/kg		0.25 µg/mL (≈ 0.548 µM)
